From US20190125727A1, “FIXED DOSE COMBINATION FOR PAIN RELIEF WITHOUT EDEMA” (Marina Biotech, Inc., priority 2014, published 2019)
“And” between values parts separate entries of the source, which are not always exact repeats. Equal entries are not always repeated.

How the values were obtained:
[1] = Incidence of edema in SYMPHONY claims / ACC registry database; assay type: in vivo, human
Text: To support this study a database was created which contains: 1) Claims data from SYMPHONY DATABASE® pertaining to anti-hypertensives, Statins, COX-2's, and NSAIDS. The data span the most recent 36 months and 2) registry data from the ACC reporting Blood Pressure (systolic/diastolic), peripheral edema flags (yes, no, missing), Heart rate, LDL, Glucose Level, Ejection fraction, GFR, Height, Weight, BJVII, and the like.
SYMPHONY DATABASE® contains true patient level data—All Data Sources be it RX or JVIX claims is tied back to individual patients which is tracked and then encrypted based on first name, last name, gender, DOB and zip code to give an accurate picture of patient level informatics year over year regardless of insurance changes.
The properties for the SYMPHONY DATABASE® are: 1) Takes CELEBREX® antihypertensive, AH, Statin or NSAID or have OA, RA or some other form of arthritis, 36 months, 2) Time Frame=Jan. 1, 2012-Dec. 31, 2014 (3 years), 3) Number of files=201, 4) Size=561 GB zipped (−2.5 TB), 5) Unique Patients=162 million, 6) Patients on CELEBREX®=4.3 million, 7) Patients that have OA=16.3 million (15.4 million only OA), 8) Patients that have RA=2.3 million (1.4 million only RA).
The properties of the ACC registry are: 1) Have 3+BP readings, 2) Time Frame=Jan. 1, 2012-Dec. 31, 2014 (3 years), 3) Number of files=2, 4) Size=590 MB, 51 MB, 5) Unique Patients=1.58 million, 6) Patients with BP readings=1.58 million, 7) Patients with Edema Flag True=870 K.
The edema rate was then measured in the aforementioned database. The incidence of edema was higher for OA patients than RA, other Arthritis, or Arthritis free patients. […] Overall OA seems to be susceptible to CELEBREX® induced edema. The results confirmed the meta-analysis shown above. […]

[2] = Moore et al., cited from earlier work
[3] = clinical; conditions: human, in vivo, oral, 200 mg
[4] = Table 1 of CELEBREX Package Insert; cited from earlier work
[5] = Celecoxib AUC from combined published pharmacokinetic data
[6] = Applicant's meta-analysis of reported edema rates in osteoarthritic populations by celecoxib dose; conditions: 400 mg/day
[7] = no arthritis patients with CELEBREX
[8] = other arthritis patients with CELEBREX

Cc1ccc(-c2cc(C(F)(F)F)nn2-c2ccc(S(N)(=O)=O)cc2)cc1 [celecoxib]
incidence of edema ([1]; Days of Therapy 60-120): (18.1%)
incidence of edema ([1]; Days of Therapy 120-180): (19.3%)
incidence of edema ([1]; Days of Therapy 180-240): (21.6%)
incidence of edema ([1]; Days of Therapy <60): (19.4%)
incidence of edema ([1]; Days of Therapy >240): (26.7%)
cases of edema (%), OA ([1]; OA patients with CELEBREX): (6.0%)
cases of edema, OA ([1]; OA patients with CELEBREX): 254
cases of edema (%), RA ([1]; RA patients with CELEBREX): (3.3%)
cases of edema, RA ([1]; RA patients with CELEBREX): 82
cases of edema (%), No Arthritis [1, 7]: (0.4%)
cases of edema, No Arthritis [1, 7]: 451
cases of edema (%), Other Arthritis [1, 8]: (4.1%)
cases of edema, Other Arthritis [1, 8]: 1702
incidence of edema at any site, usual ([2]; clinical trials of celecoxib): about 3%
incidence of edema in two trials ([2]; two trials): 23% and 38%
AUC [3]: 6440 ng·h/mL
patients treated that develop edema [4]: 2.1%
AUC Max. ([5]; 100 mg): 3418 ng·h/mL
AUC Med. ([5]; 100 mg): 3395 ng·h/mL
AUC Min. ([5]; 100 mg): 2465 ng·h/mL
AUC Max. ([5]; 200 mg): 6791 ng·h/mL
AUC Min. ([5]; 200 mg): 5972 ng·h/mL
edema event rate (upper limit and average) versus 100 or 200 mg/day dose [6]: more than twice as high

O=C(O)Cc1ccccc1Nc1c(Cl)cccc1Cl [diclofenac]
patients treated that develop edema [4]: 1.0%

CC(C)Cc1ccc(C(C)C(=O)O)cc1 (centres unmarked) [ibuprofen]
patients treated that develop edema [4]: 3.5%

COc1ccc2cc([C@H](C)C(=O)O)ccc2c1 [naproxen]
patients treated that develop edema [4]: 2.1%
